Source: US11957143B2, “Highly-soluble rebaudioside D” (SUNTORY HOLDINGS LIMITED, priority 2018, dated 2024)

How the values were obtained:
Format in all cases: physicochemical
[1] = Moisture content of crystalline forms (FIG. 10); conditions: sample heating 130° C. in N2, trace moisture analyzer
Protocol: The “moisture content” herein means the proportion of water contained in the crystal and is the proportion (wt %) of the weight of water based on the weight of the entire crystal. The moisture content of the crystal can be determined, for example, by heating the crystal at a high temperature (for example, 130° C.) under an inert atmosphere, and calculating from the change in weight between before and after the heating. The crystal of Reb. D of the present invention preferably has a moisture content of 0.1 wt % to 2.0 wt %, more preferably 0.2 wt % to 1.2 wt %, further preferably 0.40 wt % to 0.8 wt %.
The crystals of Reb. D in the crystalline form α and the crystalline form β and the control (in a stable form) were provided, and their moisture contents were compared. […] The devices and the conditions used for measuring the moisture contents are shown below.
Devices: • Trace moisture analyzer: CA-200, manufactured by Mitsubishi Chemical Analytech Co., Ltd. • Water vaporizer: VA-200 • Reagents: AQUAMICRON AX as anolyte and AQUAMICRON CXU as catholyte • Sample heating: 130° C. in an inert gas atmosphere (gas: N2, flow rate: 300 ml/min)

[2] = Turbidity (NTU) and amount dissolved 40 minutes after dissolution (FIG. 7); conditions: 90 mg in 150 ml pure water at 7.5° C., 350 rpm, 40 minutes later, versus control
Protocol: The “turbidity (NTU)” herein means the degree of turbidity when the Reb. D is dissolved in water, and the lower the turbidity means that the Reb. D is dissolved better. The turbidity can be measured by a known method, for example, using an existing absorptiometer.
Then, the solubilities were evaluated under the conditions varied. The crystal in the crystalline form α used was obtained by maintaining at 55° C. for 2 hours, followed by appropriate N2 purge and then natural cooling in vacuo. The dissolution conditions, the conditions of turbidity (NTU) measurement, and the sample preparation conditions are shown below.
90 mg of Reb. D was added to 150 ml of pure water (equivalent to 300 mg/500 ml) at 7.5° C., followed by stirring at 350 rpm for dissolution. The degree of dissolution was checked 40 minutes later.
Conditions of Turbidity (NTU) Measurement:
30 ml was collected 40 minutes later, and the turbidity (NTU) was measured. The turbidity was measured with an absorptiometer (2100AN, manufactured by Hach Company) by turbidimetry using formazin as a standard solution.
(§1) Sample Preparation Conditions:
A 0.45-um filter was immersed in the solution for 6 seconds, and then a filtrate was obtained through the filter. 1 ml of the filtrate obtained was collected and diluted 10-fold with pure water.

[3] = Solubility of crystals of Reb. D, amount dissolved (FIG. 6); conditions: 300 mg in pure water (150 ml) at 7.5° C., stirring at 200 rpm, 0.45-um filter
Protocol: The crystals of Reb. D in the crystalline form α and the crystalline form β and a control (commercially available Reb. D in a stable form) were provided, to compare their solubilities. The crystal in the crystalline form α used was obtained by maintaining Reb. D at 50° C. for 1 hour, followed by appropriate N2 purge, and the crystal in the crystalline form β used was obtained by maintaining Reb. D at 100° C. for 1.5 hours, followed by appropriate N2 purge and then overnight cooling at normal temperature. The conditions for dissolution and sample preparation are shown below.
300 mg of Reb. D was added to pure water (150 ml) at 7.5° C., followed by stirring at 200 rpm, for dissolution.
as §1
A 0.45-um filter was immersed in the solution for 30 seconds, and then a filtrate was obtained through the filter. 1 ml of the filtrate obtained was collected and diluted 10-fold with pure water.

[4] = Improvement in solubility by supplementary addition of crystal to saturated Reb. D solution (FIG. 9)
Protocol: Using the Reb. D in the crystalline form α, tests were conducted to confirm that the solubility of commercially available Reb. D was improved. […] First, commercially available Reb. D (in a stable form) was added to water to a saturated state. 24 hours later, the crystal of Reb. D in the crystalline form α was added to the saturated solution. Sampling was performed 24 hours later, 25 hours later, and 48 hours later, to check the amount of the Reb. D dissolved. […] D in the crystalline form α was added.

moisture content [1] | amount dissolved [2] | turbidity (NTU) [2] | amount dissolved as compared with the control (Cont) [3] | persistence of the increase in amount dissolved ([4]; 24 hours after the crystal was added to the saturated solution) | amount of Reb. D dissolved after addition of the crystal to a saturated solution of commercially available Reb. D ([4]; crystal added 24 hours after saturation with stable form) | SMILES
over 5 wt % |  |  |  |  |  | C=C1C[C@@]23CC[C@H]4[C@@](C)(CCC[C@@]4(C)C(=O)O[C@@H]4O[C@H](CO)[C@@H](O)[C@H](O)[C@H]4O[C@@H]4O[C@H](CO)[C@@H](O)[C@H](O)[C@H]4O)[C@@H]2CC[C@]1(O[C@@H]1O[C@H](CO)[C@@H](O)[C@H](O[C@@H]2O[C@H](CO)[C@@H](O)[C@H](O)[C@H]2O)[C@H]1O[C@@H]1O[C@H](CO)[C@@H](O)[C@H](O)[C@H]1O)C3 [control, rebaudioside D]
0.67 wt % | tended to increase | tended to be low | increased | the increase continued | further increased | C=C1C[C@@]23CC[C@H]4[C@@](C)(CCC[C@@]4(C)C(=O)O[C@@H]4O[C@H](CO)[C@@H](O)[C@H](O)[C@H]4O[C@@H]4O[C@H](CO)[C@@H](O)[C@H](O)[C@H]4O)[C@@H]2CC[C@]1(O[C@@H]1O[C@H](CO)[C@@H](O)[C@H](O[C@@H]2O[C@H](CO)[C@@H](O)[C@H](O)[C@H]2O)[C@H]1O[C@@H]1O[C@H](CO)[C@@H](O)[C@H](O)[C@H]1O)C3 [crystalline form α, rebaudioside D]
0.37 wt % |  |  | increased |  |  | C=C1C[C@@]23CC[C@H]4[C@@](C)(CCC[C@@]4(C)C(=O)O[C@@H]4O[C@H](CO)[C@@H](O)[C@H](O)[C@H]4O[C@@H]4O[C@H](CO)[C@@H](O)[C@H](O)[C@H]4O)[C@@H]2CC[C@]1(O[C@@H]1O[C@H](CO)[C@@H](O)[C@H](O[C@@H]2O[C@H](CO)[C@@H](O)[C@H](O)[C@H]2O)[C@H]1O[C@@H]1O[C@H](CO)[C@@H](O)[C@H](O)[C@H]1O)C3 [crystalline form β, rebaudioside D]
